According to patent US9067892B2, “Spiroheterocyclic N-oxypiperidines as pesticides” (Syngenta Crop Protection, Inc., priority 2008, dated 2015):
Read-outs that look alike come from different tables or passages of the source.

What was measured:
[1] = test system: Myzus persicae (green peach aphid); assay: Example B14: drench activity against Myzus persicae in field soil, persistence, comparison with state of the art; assay type: in vivo; conditions: for mortality at 12.5 ppm: Myzus persicae, soil, pepper plants in field soil, read-out: Mortality (%) xx days after application (drench, systemic action, persistence)
Protocol: (§1) Six weeks old pepper plants cultivated in field soil are treated as drench application at various rates (mg a.i./liter soil). The same day, plants are infested with a mixed population of M. persicae and incubated in the greenhouse under optimal greenhouse conditions. Samples are assessed 7 days after infestation on mortality. Treated plants are re-infested 7, 14, 21 and 28 days after application. Evaluation is always done 7 days after infestation. Plants are also checked for damage (phytotoxicity), visual assessment being made using a 0-100% rating scale (100%=total damage to plant; 0%=no damage to plant).

pepper plants = conditions: in vivo
Protocol: as §1

[2] = test system: Thrips Tabaci (onion thrips); assay: Example B3: Thrips tabaci, mixed population, feeding/residual contact activity, preventive; assay type: in vivo; conditions: foliar, 144 h, sunflower leaf discs sprayed, 6 days incubation, mortality
[3] = test system: Tetranychus urticae (two-spotted spider mite); assay: Example B4: Tetranychus urticae, mixed population, feeding/residual contact activity, preventive; assay type: in vivo; conditions: foliar, 192 h, bean leaf discs sprayed, 8 days, egg, larval and adult mortality
Text: Activity Against Tetranychus urticae (Two-Spotted Spider Mite) (Mixed Population, Feeding/Residual Contact Activity, Preventive) Bean leaf discs on agar in 24-well microtiter plates are sprayed with test solutions. […] 8 days later, discs are checked for egg mortality, larval mortality, and adult mortality.

[4] = test system: Nilaparvata lugens (brown rice planthopper); assay: Example B8: Nilaparvata lugens, larvicide, feeding/contact; assay type: in vivo; conditions: rice seedlings sprayed, N3 nymphs, 6-12 days after treatment
Protocol: Activity Against Nilaparvata lugens (Brown Rice Planthopper) (Larvicide, Feeding/Contact) Rice seedlings are treated with the diluted test solutions in a spray chamber. After drying, they are infested with 20 N3 nymphs (2 replicates). 6-12 days after the treatment samples are checked for mortality, growth regulation, and effects on the F1 generation.

[5] = test system: Aphis craccivora (cowpea aphid); assay: Example B10: Aphis craccivora, mixed population, systemic/feeding; assay type: in vivo; conditions: 144 h, roots of infested pea seedlings in test solution, 6 days, mortality
Text: 6 days later, samples are checked for mortality.

[6] = test system: Aphis craccivora (cowpea aphid); assay: Example B11: translaminar activity against Aphis craccivora; assay type: in vivo; conditions: 120 h, French bean leaves, aphids on lower side, upper side painted, 5 days, mortality
Protocol: Translaminar Activity Against Aphis craccivora (Cowpea Aphid) French bean leaves (Phaseolus vulgaris) are infested with about 20 mixed age individuals on the lower leaf side using clip cages. 1 day after the infestation, the upper side of the leaves is treated with the test solution by painting. 5 days later, samples are checked for mortality.

[7] = test system: Myzus persicae (green peach aphid); assay: Example B13: drench activity against Myzus persicae; assay type: in vivo; conditions: 168 h, pea seedlings in field soil, 7 days after infestation, mortality
Protocol: Drench Activity Against Myzus persicae (Green Peach Aphid) Pea seedlings cultivated in field soil are treated as drench application and infested with a mixed population of M. persicae. 7 days after infestation, samples are checked for mortality.

[8] = test system: Aphis craccivora (cowpea aphid); assay: Example B15: Aphis craccivora, mixed population, adjuvant effect, curative; assay type: in vivo; conditions: for Abbott's efficacy (%) against Aphis craccivora: 3 ppm, formulated as EC050, adjuvant 0.1% (v/v) where named, broad bean plants, 7 days after treatment
Protocol: One day after infestation, plants are treated with diluted test solutions of the compound formulated as EC050 in a spray chamber (4 replicates). […] Efficacy was calculated with the aid of Abbott's formula.

[9] = test system: Myzus persicae (green peach aphid); assay: Example B16: Myzus persicae on pepper plants, feeding/residual contact activity; assay type: in vivo; conditions: 144 h, infested pepper plants sprayed, 6 days after treatment, mortality, read-out: activity against Myzus persicae
[10] = test system: Myzus persicae (green peach aphid); assay: Example B2: Myzus persicae, mixed population, systemic/feeding activity, curative; conditions: 144 h, read-out: activity
[11] = test system: Myzus persicae (green peach aphid); assay: Example B1: Myzus persicae, mixed population, feeding/residual contact activity, preventive; conditions: foliar, 144 h, read-out: activity
[12] = 0 days after application (infestation day; evaluated 7 days after infestation)
[13] = 14 days after application (re-infestation; evaluated 7 days after infestation)
[14] = 21 days after application (re-infestation; evaluated 7 days after infestation)
[15] = 28 days after application (re-infestation; evaluated 7 days after infestation)
[16] = 168 h, 7 days after application (re-infestation; evaluated 7 days after infestation)

Structure (SMILES) | mortality at 12.5 ppm [1, 12] [%] | mortality at 12.5 ppm [1, 13] [%] | mortality at 12.5 ppm [1, 14] [%] | mortality at 12.5 ppm [1, 15] [%] | mortality at 12.5 ppm [1, 16] [%] | plant compatibility on pepper plants (in words) (pepper plants) | pest or weed control at 400 ppm [2] [%] | pest or weed control at 400 ppm [3] [%] | pest or weed control at 400 ppm [4] [%] | pest or weed control at 400 ppm [5] [%] | pest or weed control at 400 ppm [6] [%] | pest or weed control at 25 ppm [7] [%] | insecticidal action on Myzus persicae (in words) ([1]; summary of Table B14, drench) | Abbott's efficacy (%) against Aphis craccivora ([8]; Table B15A) [%] | Abbott's efficacy (%) against Aphis craccivora ([8]; Table B15B) [%] | effect of adjuvants on insecticidal activity (in words) ([8]; summary of Tables B15A and B15B) | pest or weed control at 200 ppm [9] [%] | pest or weed control at 400 ppm [10] [%] | pest or weed control at 400 ppm [11] [%]
CCOC(=O)OC1=C(c2c(C)cc(C)cc2C)C(=O)NC12CCN(OC)CC2 [A18, reference compound] | 100 | 98 | 95 | 95 | 100 | damages these to an untolerable high extend |  |  |  |  |  |  |  |  |  |  |  |  | 
CCOC(=O)OC1=C(c2c(C)cc(C)cc2C)C(=O)N(C)C12CCN(OC)CC2 [P1.2, Carbonic acid ethyl ester 8-methoxy-1-methyl-2-oxo-3-(2,4,6-trimethyl-phenyl)-1,8-diaza-spiro[4.5]dec-3-en-4-yl ester] | 98 | 98 | 100 | 98 | 98 | no damage at all | > 80 | > 80 | > 80 | > 80 | > 80 | > 80 | very similar to the action of the compound of the state of the art | 54 | 25 | enhance the insecticidal activity of compound P1.2 significantly | ≥ 80 | > 80 | > 80
CCOC(=O)OC1=C(c2c(C)cc(C)cc2C)C(=O)N(COC)C12CCN(OC)CC2 [P1.3] |  |  |  |  |  |  | > 80 | > 80 | > 80 | > 80 | > 80 | > 80 |  |  |  |  |  | > 80 | > 80
CCOC(=O)OC1=C(c2c(C)cc(C)cc2C)C(=O)N(COCCOC)C12CCN(OC)CC2 [P1.18] |  |  |  |  |  |  | > 80 | > 80 | > 80 | > 80 | > 80 | > 80 |  |  |  |  |  | > 80 | > 80
CON1CCC2(CC1)C(O)=C(c1c(C)cc(C)cc1C)C(=O)N2C [P2.2, 4-hydroxy-8-methoxy-1-methyl-3-(2,4,6-trimethyl-phenyl)-1,8-diaza-spiro[4.5]dec-3-en-2-one] |  |  |  |  |  |  | > 80 | > 80 | > 80 | > 80 | > 80 | > 80 |  |  |  |  | ≥ 80 | > 80 | > 80
COCN1C(=O)C(c2c(C)cc(C)cc2C)=C(O)C12CCN(OC)CC2 [P2.6] |  |  |  |  |  |  | > 80 | > 80 | > 80 | > 80 | > 80 | > 80 |  |  |  |  | ≥ 80 | > 80 | > 80
COCCOCN1C(=O)C(c2c(C)cc(C)cc2C)=C(O)C12CCN(OC)CC2 [P2.19] |  |  |  |  |  |  | > 80 | > 80 | > 80 | > 80 | > 80 | > 80 |  |  |  |  |  | > 80 | > 80
